From publication PMC3671673, “In Vitro Morphological Assessment of Apoptosis Induced by Antiproliferative Constituents from the Rhizomes of Curcuma zedoaria” (Evidence-based Complementary and Alternative Medicine : eCAM, 2013)
In brackets after ≈: the same amount, converted by molar mass. Like-named read-outs stand apart in the source and are kept apart here.

How the values were obtained:
[1] = test system: noncancer human lung fibroblast cell line (MRC-5); test: Neutral red cytotoxicity assay, MRC-5; type: cell-based; conditions: 72 h, mean ± SD of three replicates, read-out: IC50 (μg/mL) MRC-5
Description: (§1) The human cancer cells KB, Ca Ski, MCF-7, HCT-116, A549, and noncancer human cell lines (MRC-5) were purchased from the American Tissue Culture Collection (ATCC, USA). The supplemented RPMI 1640 media and eagle minimum essential medium (EMEM) were purchased from Sigma-Aldrich, USA. The supplements or antibiotics such as foetal bovine serum (FBS), penicillin/streptomycin (P/S) (100 μg/mL), amphotericin B (50 μg/mL), and accutase were purchased from PAA Laboratories, Austria. Sodium pyruvate (11 mg/mL) purchased from Sigma-Aldrich, USA. The cells were cultured in a SHEL LAB water-jacketed CO2 incubator with […] tissue culture flasks (Nunc, Denmark), which was observed routinely under inverted microscope (Leica DMI3000 B, Germany) for any contamination and seeded into 96-well flat bottom microtiter plate (Nunc, Denmark). The extract or pure compounds was dissolved in dimethyl sulfoxide (DMSO, Molecular Biology Grade, >99.9%) from Sigma-Aldrich, USA. Microtiter plate incubator shaker (LT Biomax 500) was used and absorbance was measured at 540 nm using an ELISA microplate reader (EMax microplate reader of Molecular Devices, USA). MCF-7 and Ca Ski were cultured in RPMI 1640 media supplemented with 10% v/v FBS, P/S, and amphotericin B and MRC-5 in EMEM media with 10% v/v FBS, P/S, amphotericin B, and sodium pyruvate. The cells were cultured in tissue culture flask in 5% CO2 incubator kept at 37°C in a humidified atmosphere and observed routinely under inverted microscope from any contaminations. Each fresh medium was replaced every 2 or 3 days until cell confluence was achieved and the cells were detached by using accutase.
(§2) The in vitro cytotoxicity activity was performed using the neutral red cytotoxicity assay based on the initial protocol as described earlier with some modifications. Briefly, cells were detached from the tissue culture flask with 1.0 mL solution of accutase and PBS solution. The cell pellet was obtained by centrifugation at 1,000 rpm for 5 minutes. The density of the viable cells was counted by 0.4% of trypan blue exclusion in a haemocytometer. Cells were then plated in 96-well microtiter plate (Nunc), at a concentration of 1 × 10^4 cells/well and incubated in a CO2 incubator at 37°C to allow the cells to adhere. After 24 h, the cells were treated with six different concentrations, that is, 1, 10, 25, 50, 75, and 100 μg/mL of each tested agent in three replicates. The plates were incubated for 72 h at 37°C in a 5% CO2 incubator. The untreated cells were regarded as a negative control, whilst cells incubated only with DMSO (0.5%, v/v) were used as a vehicle control. No effect due to the DMSO was observed. Doxorubicin was used as the positive control. After 72 h, the old medium was substituted with fresh medium containing 50 μg/mL neutral red. The 96-well plates were placed into incubator for 3 h. This is to allow the uptake of the vital dye into the lysosomes of viable and undamaged cells. Then, the media was discarded and cells were washed with 200 μL of neutral red washing solution. The dye was eluted from the cells by adding neutral red resorb solution (200 μL). The plate was further incubated for 30 min with rapid agitation on a microtiter plate shaker. The optical density (OD) of the eluted dye was read at 540 nm using a microplate reader. The experiments were conducted in triplicates. […] Cytotoxicity of each test agent is expressed as IC50 value. […]

[2] = test system: lung carcinoma cell line (A549); test: Neutral red cytotoxicity assay, A549; type: cell-based; conditions: Homo sapiens, extracts, 72 h, mean ± SD of three replicates, read-out: IC50 (μg/mL) A549
Description: (§3) The human cancer cells KB, Ca Ski, MCF-7, HCT-116, A549, and noncancer human cell lines (MRC-5) were purchased from the American Tissue Culture Collection (ATCC, USA). The supplemented RPMI 1640 media and eagle minimum essential medium (EMEM) were purchased from Sigma-Aldrich, USA. The supplements or antibiotics such as foetal bovine serum (FBS), penicillin/streptomycin (P/S) (100 μg/mL), amphotericin B (50 μg/mL), and accutase were purchased from PAA Laboratories, Austria. Sodium pyruvate (11 mg/mL) purchased from Sigma-Aldrich, USA. […] Microtiter plate incubator shaker (LT Biomax 500) was used and absorbance was measured at 540 nm using an ELISA microplate reader (EMax microplate reader of Molecular Devices, USA). […]
(§4) The in vitro cytotoxicity activity was performed using the neutral red cytotoxicity assay based on the initial protocol as described earlier with some modifications. […] The density of the viable cells was counted by 0.4% of trypan blue exclusion in a haemocytometer. […] The optical density (OD) of the eluted dye was read at 540 nm using a microplate reader. […] Cytotoxicity of each test agent is expressed as IC50 value. […]

[3] = test system: nasopharyngeal carcinoma cell line (KB); test: Neutral red cytotoxicity assay, KB; type: cell-based, human; conditions: extracts, 72 h, mean ± SD of three replicates
Description: as §3, §4

[4] = test system: colon carcinoma cell line (HCT-116); test: Neutral red cytotoxicity assay, HCT-116; type: cell-based; conditions: Homo sapiens, 72 h, mean ± SD of three replicates, read-out: IC50 (μg/mL) HCT-116
Description: as §1, §2

[5] = test system: hormone-dependent breast cancer cell line (MCF-7); test: cells; type: cell-based; conditions: Homo sapiens, MCF7, 72 h, neutral red, mean ± SD of three replicates, read-out: IC50 (μg/mL) MCF-7
Description: as §1
(§5) The in vitro cytotoxicity activity was performed using the neutral red cytotoxicity assay based on the initial protocol as described earlier with some modifications. Briefly, cells were detached from the tissue culture flask with 1.0 mL solution of accutase and PBS solution. The cell pellet was obtained by centrifugation at 1,000 rpm for 5 minutes. The density of the viable cells was counted by 0.4% of trypan blue exclusion in a haemocytometer. Cells were then plated in 96-well microtiter plate (Nunc), at a concentration of 1 × 10^4 cells/well and incubated in a CO2 incubator at 37°C to allow the cells to adhere. After 24 h, the cells were treated with six different concentrations, that is, 1, 10, 25, 50, 75, and 100 μg/mL of each tested agent in three replicates. The plates were incubated for 72 h at 37°C in a 5% CO2 incubator. The untreated cells were regarded as a negative control, whilst cells incubated only with DMSO (0.5%, v/v) were used as a vehicle control. No effect due to the DMSO was observed. Doxorubicin was used as the positive control. After 72 h, the old medium was substituted with fresh medium containing 50 μg/mL neutral red. The 96-well plates were placed into incubator for 3 h. This is to allow the uptake of the vital dye into the lysosomes of viable and undamaged cells. Then, the media was discarded and cells were washed with 200 μL of neutral red washing solution. The dye was eluted from the cells by adding neutral red resorb solution (200 μL). The plate was further incubated for 30 min with rapid agitation on a microtiter plate shaker. The optical density (OD) of the eluted dye was read at 540 nm using a microplate reader. The experiments were conducted in triplicates. The percentage of inhibition of each of the test samples was calculated according to the following formula using the OD values obtained: percentage of inhibition (%) = (OD control − OD sample)/OD control × 100%. The average of three replicates was then obtained. Cytotoxicity of each test agent is expressed as IC50 value. The IC50 value is the concentration of test agents that cause 50% inhibition or cell death, averaged from the three experiments. The IC50 for each extract was extrapolated from the graphs of the percentage inhibition versus concentration of test agents.

[6] = test system: cervical carcinoma cell line (Ca Ski); test: cells; type: cell-based; conditions: Homo sapiens, 72 h, neutral red, mean ± SD of three replicates, read-out: IC50 (μg/mL) Ca Ski
Description: as §1, §5

[7] = test system: cervical carcinoma cell line (Ca Ski); design: method as in PMID 19471192; conditions: reported previously, ref [21]; cited from earlier work
[8] = test system: colon carcinoma cell line (HCT-116); design: method as in PMID 19471192; conditions: HCT-116, reported previously, ref [21]; cited from earlier work
[9] = test system: hormone-dependent breast cancer cell line (MCF-7); design: method as in PMID 19471192; conditions: MCF-7, reported previously, ref [21]; cited from earlier work

SMILES: COc1cccc2c1C(=O)c1c(O)c3c(c(O)c1C2=O)C[C@@](O)(C(=O)CO)C[C@@H]3O[C@H]1C[C@H](N)[C@H](O)[C@H](C)O1 [Doxorubicin, reference compound]
- IC50 ([1]; MRC5, extracts): 0.4 ± 0.03 µg/mL (≈ 0.736 µM)
- IC50 [2]: 0.58 ± 0.01 µg/mL (≈ 1.07 µM)
- IC50 (μg/mL) KB [3]: 0.27 ± 0.01 µg/mL (≈ 0.497 µM)
- IC50 ([4]; extracts): 0.24 ± 0.04 µg/mL (≈ 0.442 µM)
- IC50 ([5]; extracts): 0.05 ± 0.01 µg/mL (≈ 0.092 µM)
- IC50 ([6]; extracts): 0.18 ± 0.06 µg/mL (≈ 0.331 µM)

SMILES: C/C1=C\CC[C@H](C)C(=O)C[C@H](C(C)C)C(=O)C1 [Neocurdione (2), neocurdione]
- IC50 ([1]; MRC5, isolated compounds): 59 ± 0.4 µg/mL (≈ 250 µM)
- IC50 ([4]; isolated compounds): 64 ± 1.3 µg/mL (≈ 271 µM)
- IC50 ([5]; isolated compounds): 53.5 ± 1.1 µg/mL (≈ 226 µM)
- IC50 ([6]; isolated compounds): 46.2 ± 1.1 µg/mL (≈ 195 µM)

SMILES: C/C1=C\CC[C@@]2(C)O[C@@H]2C(=O)c2c(C)coc2C1 [Zederone (5), zederone]
- IC50 ([1]; MRC5, isolated compounds): > 100 µg/mL
- IC50 ([4]; isolated compounds): > 100 µg/mL
- IC50 ([5]; isolated compounds): > 100 µg/mL
- IC50 ([6]; isolated compounds): > 100 µg/mL

SMILES: CC[C@H](CC[C@@H](C)[C@H]1CC[C@H]2[C@@H]3CC=C4C[C@@H](O)CC[C@]4(C)[C@H]3CC[C@]12C)C(C)C [β-sitosterol (8), β-sitosterol]
- cytotoxicity (in words) [7]: low cytotoxicity
- cytotoxicity (in words) [8]: low cytotoxicity
- cytotoxicity (in words) [9]: low cytotoxicity
